Results: patent publication US20260209214A1, “LSD1 MODULATORS” (RECURSION PHARMACEUTICALS, INC., priority 2022, published 2026)

target: Recombinant human LSD1 (Homo sapiens, UniProt O60341); assay: LSD1 inhibition assay (HTRF LSD1 Histone H3K4 mono-demethylation assay, me1->me0); type: biochemical; details: 20 nM recombinant human LSD1, 95 nM H3K4(me1) biotinylated peptide, 15 min preincubation, 60 min at 25° C., read-out: LSD1 inhibition IC50 (nM range)
Method in brief: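 Recombinant human LSD1 (20 nM) pre-incubated 15 min with 10 semi-log compound doses, then 95 nM biotinylated H3K4me1 peptide for 60 min at 25 °C in pH 8.5 Tris/NaCl buffer with 10 μM FAD, 1 mM DTT. HTRF me0-antibody read after 90 min; IC50 from 4-parameter fit.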

Structure (SMILES) | IC50 [nM]
N#Cc1ccc(-c2cccc(CN3CC4CCC(C3)N4)c2C2CC2)cc1F [Example 210, 2'-cyclopropyl-3'-({3,8-diazabicyclo[3.2.1]octan-3-yl}methyl)-3-fluoro-[1,1'-biphenyl]-4-carbonitrile] | 10 to 25
CN[C@H]1CCN(Cc2cccc(-c3ccc(C#N)c(F)c3)c2C2CC2)C1 [Example 211, 2'-cyclopropyl-3-fluoro-3'-{[(3S)-3-(methylamino)pyrrolidin-1-yl]methyl}-[1,1'-biphenyl]-4-carbonitrile] | 25 to 100
CN[C@H]1CCCN(Cc2cccc(-c3ccc(C#N)c(F)c3)c2C2CC2)CC1 [Example 215, 2'-cyclopropyl-3-fluoro-3'-{[(4S)-4-(methylamino)azepan-1-yl]methyl}-[1,1'-biphenyl]-4-carbonitrile] | 25 to 100
COCC1CCN(c2ccc(CN3C[C@]4(N)CC[C@H]3C4)cc2-c2ccc(C#N)c(F)c2)CC1 [Example 216, 5'-{[(1S,4S)-4-amino-2-azabicyclo[2.2.1]heptan-2-yl]methyl}-3-fluoro-2'-[4-(methoxymethyl)piperidin-1-yl]-[1,1'-biphenyl]-4-carbonitrile] | < 10
N#Cc1ccc(-c2cc(CN3C[C@]4(N)CC[C@H]3C4)ccc2N2CCC3(CCCO3)CC2)cc1F [Example 217, 5'-{[(1S,4S)-4-amino-2-azabicyclo[2.2.1]heptan-2-yl]methyl}-3-fluoro-2'-{1-oxa-8-azaspiro[4.5]decan-8-yl}-[1,1'-biphenyl]-4-carbonitrile] | 10 to 25
N#Cc1ccc(-c2cccc(CN3C[C@@]4(N)CC[C@@H]3C4)c2C2CC2)cc1F [Example 225, 3'-{[(1R,4R)-4-amino-2-azabicyclo[2.2.1]heptan-2-yl]methyl}-2'-cyclopropyl-3-fluoro-[1,1'-biphenyl]-4-carbonitrile] | 100 to 1000
Cc1cc(CNCC2CCN(C)C2)c(Cl)c(-c2ccc(C#N)c(F)c2)c1 (stereo not shown) [Example 226, 2'-chloro-3-fluoro-5'-methyl-3'-({[(1-methylpyrrolidin-3-yl)methyl]amino}methyl)-[1,1'-biphenyl]-4-carbonitrile] | 100 to 1000
N#Cc1ccc(-c2cccc(CN3CC4CCC3C(N)C4)c2C2CC2)cc1F (stereo not shown) [Example 227, 3'-({6-amino-2-azabicyclo[2.2.2]octan-2-yl}methyl)-2'-cyclopropyl-3-fluoro-[1,1'-biphenyl]-4-carbonitrile] | 25 to 100
CN[C@@H]1CCN(Cc2cccc(-c3ccc(C#N)c(F)c3)c2C2CC2)C1 [Example 228, 2'-cyclopropyl-3-fluoro-3'-{[(3R)-3-(methylamino)pyrrolidin-1-yl]-methyl}-[1,1'-biphenyl]-4-carbonitrile] | 100 to 1000
Cn1nc2ccc(-c3ccc(CN4C[C@@]5(N)CC[C@@H]4C5)cc3-c3ccc(C#N)c(F)c3)cc2c1Cl [Example 233, 5'-{[(1R,4R)-4-amino-2-azabicyclo[2.2.1]heptan-2-yl]methyl}-2'-(3-chloro-2-methyl-2H-indazol-5-yl)-3-fluoro-[1,1'-biphenyl]-4-carbonitrile] | 10 to 25
N#Cc1ccc(-c2cc(CN3C[C@]4(N)CC[C@H]3C4)ccc2N2CCC3(CCOC3)CC2)cc1F [Example 234, 5'-{[(1S,4S)-4-amino-2-azabicyclo[2.2.1]heptan-2-yl]methyl}-3-fluoro-2'-{2-oxa-8-azaspiro[4.5]decan-8-yl}-[1,1'-biphenyl]-4-carbonitrile] | < 10
N#Cc1ccc(-c2cccc(Cn3cc4c(n3)CNCC4)c2-c2cncs2)cc1F [Example 236, 3-fluoro-3'-({2H,4H,5H,6H,7H-pyrazolo[3,4-c]pyridin-2-yl}methyl)-2'-(1,3-thiazol-5-yl)-[1,1'-biphenyl]-4-carbonitrile] | 25 to 100
N#Cc1ccc(-c2cccc(CN3C[C@@H]4C[C@@H](N)[C@H]3C4)c2-c2cncs2)cc1F [Example 237, 3'-{[(1R,4R,6R)-6-amino-2-azabicyclo[2.2.1]heptan-2-yl]methyl}-3-fluoro-2'-(1,3-thiazol-5-yl)-[1,1'-biphenyl]-4-carbonitrile] | 10 to 25
N#Cc1ccc(-c2cccc(CN3CC4CNCC3C4)c2Cl)cc1F (stereo not shown) [Example 238, 2'-chloro-3'-({3,6-diazabicyclo[3.2.1]octan-6-yl}methyl)-3-fluoro-[1,1'-biphenyl]-4-carbonitrile] | 100 to 1000
CN1CCC12CCN(Cc1c(F)ccc(-c3ccc(C#N)c(F)c3)c1N1CCC1)C2 (stereo not shown) [Example 239, 2'-(azetidin-1-yl)-3,4'-difluoro-3'-({1-methyl-1,6-diazaspiro[3.4]octan-6-yl}methyl)-[1,1'-biphenyl]-4-carbonitrile] | 25 to 100
C[C@@]1(N)CCN(Cc2cccc(-c3ccc(C#N)c(F)c3)c2-c2ccns2)C1 [Example 242, 3'-{[(3R)-3-amino-3-methylpyrrolidin-1-yl]methyl}-3-fluoro-2'-(1,2-thiazol-5-yl)-[1,1'-biphenyl]-4-carbonitrile] | 10 to 25
CC(C)C1(O)CCN(c2ccc(CN3C[C@]4(N)CC[C@H]3C4)cc2-c2ccc(C#N)c(F)c2)CC1 [Example 262, 5'-{[(1S,4S)-4-amino-2-azabicyclo[2.2.1]heptan-2-yl]methyl}-3-fluoro-2'-[4-hydroxy-4-(propan-2-yl)piperidin-1-yl]-[1,1'-biphenyl]-4-carbonitrile] | 10 to 25
Cn1nc2ccc(-c3ccc(CN4C[C@]5(N)CC[C@H]4C5)cc3-c3ccc(C#N)c(F)c3)cc2c1Cl [Example 263, 5'-{[(1S,4S)-4-amino-2-azabicyclo[2.2.1]heptan-2-yl]methyl}-2'-(3-chloro-2-methyl-2H-indazol-5-yl)-3-fluoro-[1,1'-biphenyl]-4-carbonitrile] | < 10
Cn1cc2cc(-c3ccc(CN4C[C@]5(N)CC[C@H]4C5)cc3-c3ccc(C#N)c(F)c3)ccc2n1 [Example 264, 5'-{[(1S,4S)-4-amino-2-azabicyclo[2.2.1]heptan-2-yl]methyl}-3-fluoro-2'-(2-methyl-2H-indazol-5-yl)-[1,1'-biphenyl]-4-carbonitrile] | 10 to 25
N#Cc1ccc(-c2cccc(CN3C4CCC3CNC4)c2C2CC2)cc1F [Example 265, 2'-cyclopropyl-3'-({3,8-diazabicyclo[3.2.1]octan-8-yl}methyl)-3-fluoro-[1,1'-biphenyl]-4-carbonitrile] | 25 to 100
N#Cc1ccc(-c2cccc(CN3CCC4(CCCN4)C3)c2C2CC2)cc1F (stereo not shown) [Example 266, Fc1cc(ccc1C#N)c2cccc(CN3CCC4(CCCN4)C3)c2C5CC5] | 100 to 1000
N#Cc1ccc(-c2cccc(CN3CCCC4(CCN4)C3)c2C2CC2)cc1F (stereo not shown) [Example 267, 2'-cyclopropyl-3'-({1,6-diazaspiro[3.5]nonan-6-yl}methyl)-3-fluoro-[1,1'-biphenyl]-4-carbonitrile] | 100 to 1000
N#Cc1ccc(-c2cccc(CN3CC[C@@H]4NCCC[C@@H]43)c2C2CC2)cc1F [Example 271, Fc1cc(ccc1C#N)c2cccc(CN3CC[C@@H]4NCCC[C@H]34)c2C5CC5] | 100 to 1000
CN[C@H]1CCCCN(Cc2cccc(-c3ccc(C#N)c(F)c3)c2C2CC2)C1 [Example 272, 2'-cyclopropyl-3-fluoro-3'-{[(3S)-(methylamino)azepan-1-yl]methyl}-[1,1'-biphenyl]-4-carbonitrile] | 100 to 1000

same assay, conditions: LSD1 inhibition IC50 (nM range), 20 nM recombinant human LSD1, 95 nM H3K4(me1) biotinylated peptide, 15 min preincubation, 60 min at 25° C.

Structure (SMILES) | IC50 [nM]
CN1CC2(C1)CN(Cc1cccc(-c3ccc(C#N)c(F)c3)c1Cl)C2 [Example 214, CN1CC2(C1)CN(Cc3cccc(c3Cl)c4ccc(C#N)c(F)c4)C2] | > 1000
